Drawing on patent publication US9115133B2, “Substituted fused tricyclic compounds, compositions and medicinal applications thereof” (Advinus Therapeutics Limited, priority 2011, dated 2015), this text covers IC50 for 29 compounds.

A word on the IC50: it is the concentration that inhibits the measured activity by half.

T2 sequence (P52333 781-1124): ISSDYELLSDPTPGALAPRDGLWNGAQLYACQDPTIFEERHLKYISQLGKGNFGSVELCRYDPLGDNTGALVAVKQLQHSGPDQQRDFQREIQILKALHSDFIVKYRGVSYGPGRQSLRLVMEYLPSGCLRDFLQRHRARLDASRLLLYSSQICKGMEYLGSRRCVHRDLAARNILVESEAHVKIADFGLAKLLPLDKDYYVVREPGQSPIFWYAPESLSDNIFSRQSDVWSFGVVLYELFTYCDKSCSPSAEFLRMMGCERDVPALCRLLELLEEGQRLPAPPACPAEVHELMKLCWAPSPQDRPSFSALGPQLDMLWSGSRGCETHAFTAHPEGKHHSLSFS
T1 sequence (P23458 850-1154): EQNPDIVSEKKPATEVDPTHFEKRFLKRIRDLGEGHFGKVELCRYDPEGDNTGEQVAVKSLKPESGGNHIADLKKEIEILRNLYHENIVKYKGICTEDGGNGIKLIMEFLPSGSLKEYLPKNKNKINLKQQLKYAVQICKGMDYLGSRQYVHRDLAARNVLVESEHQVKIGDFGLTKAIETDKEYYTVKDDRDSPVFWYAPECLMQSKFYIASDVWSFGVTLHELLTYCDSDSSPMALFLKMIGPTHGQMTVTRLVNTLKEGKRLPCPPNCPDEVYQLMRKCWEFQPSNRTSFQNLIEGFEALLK

The first test concerns the target T1, Recombinant JAK1 (Amino acids 850-1154) (Homo sapiens, UniProt P23458).
T1 construct: Recombinant JAK1 (Amino acids 850-1154; NM_002227.2); made in house; host or cells: baculovirus expression system (Bac-to-Bac)
Kind of test: Kinase-Glo Luminescent Kinase Assay, recombinant JAK1. The test is classed as biochemical. Particulars: 200 μg/ml Poly Glu-Tyr (4:1), ATP 1 uM, 90 min room temperature, luminescence. An excerpt:
(§1) Recombinant JAK1 (Amino acids 850-1154; NM_002227.2), JAK2 (Amino acids 808-1132; NM_004972.3) and JAK3 (Amino acids 781-1124; NM_000215.3) used in the studies were expressed using Invitrogen's Bac-to-Bac baculovirus expression system according to manufacturer's instructions. Adenosine 5′-triphosphate was obtained from Sigma Aldrich chemicals (Cat # A7699). Poly Glu-Tyr (4:1) sodium salt was obtained from Sigma Aldrich (Cat # P0275), Kinase Glo® Luminescent Kinase assay kit was obtained from Promega (Cat # V6713) Kinase activity was assessed by Promega Kinase-Glo® Luminescent Kinase Assay kit using 200 μg/ml Poly Glu-Tyr (4:1) as substrate and ATP at 1 uM concentration. The reactions were carried out in 384 well plates in total reaction volume of 20 uL. Reaction mixtures contained 50 mM HEPES pH 7.4, 5 mM MgCl2, 1 mM DTT, 0.01% BSA, 0.01% Tween 20. Kinase was pre-incubated with compounds or 1% DMSO for 5 min before addition of substrate and ATP to check for inhibition. Kinase reactions were carried out at room temperature for 90 min. The reactions were stopped by adding 5 μl of Kinase Glo® reagent & 10 μl of reaction mixture followed by measuring luminescence. The luminescent signal is correlated with the amount of ATP present at the end of kinase reaction and is inversely correlated with the amount of kinase activity. For each data point, % inhibition is calculated based on uninhibited reaction (without compound) which is considered as 100% activity over no enzyme or substrate controls. Dose response data is then fit using a four parameter logistic equation using Graph-pad Prism 5 software to determine inhibition constant 50 (IC50).
As for `O=C(C1CC1)N1CCCC(c2ccnc3cnc4[nH]ccc4c23)C1` (stereo not drawn) [Ex. 2, cyclopropyl-[3-(3H-pyrrolo[3,2-f][1,7]naphthyridin-9-yl)-1-piperidyl]methanone], the IC50 fell in the range of 1 to 20 nM.
Same read-out and setting: to `CN(C(=O)CC1CC1)C1CCCN(c2ccnc3cnc4[nH]ccc4c23)C1` (stereo not drawn) [Ex. 63, 2-cyclopropyl-N-methyl-N-[1-(3H-pyrrolo[3,2-f][1,7]naphthyridin-9-yl)-3-piperidyl]acetamide] belongs greater than 20 nM.
Still for that read-out and setting: next, `CC(C)C(=O)N1CCCC(c2ccnc3cnc4[nH]ccc4c23)C1` (stereo not drawn) [Ex. 3, 2-methyl-1-[3-(3H-pyrrolo[3,2-f][1,7]naphthyridin-9-yl)-1-piperidyl]propan-1-one]: greater than 20 nM; `O=C(CC(F)(F)F)N1CCC(c2ccnc3cnc4[nH]ccc4c23)CC1` [Comp. 88, 3,3,3-trifluoro-1-[4-(3H-pyrrolo[3,2-f][1,7]naphthyridin-9-yl)-1-piperidyl]propan-1-one]: greater than 20 nM.

The next test addresses T2, Recombinant JAK3 (Amino acids 781-1124) (Homo sapiens, UniProt P52333).
T2 construct: JAK3 (Amino acids 781-1124; NM_000215.3); made in house; host or cells: baculovirus expression system (Bac-to-Bac)
As to the kind of experiment: Kinase-Glo Luminescent Kinase Assay, recombinant JAK3. It counts as biochemical. Particulars: 200 μg/ml Poly Glu-Tyr (4:1), ATP 1 uM, 90 min room temperature, luminescence.
Source text: as §1
For orientation: Kinase-Glo reads ATP consumption through a luciferase reaction.
Take `O=C(C1CC1)N1CCCC(c2ccnc3cnc4[nH]ccc4c23)C1` (stereo not drawn) [Ex. 2, cyclopropyl-[3-(3H-pyrrolo[3,2-f][1,7]naphthyridin-9-yl)-1-piperidyl]methanone]: the half-inhibitory concentration (IC50) fell in the range of 1 to 20 nM.
On the same count and under the same terms, next, `O=C(CCC(F)(F)F)N1CCC(c2ncnc3cnc4[nH]ccc4c23)C1` (stereo not drawn) [Ex. 37, 4,4,4-Trifluoro-1-[3-(3H-3,4,6,8-tetraaza-cyclopenta[a]naphthalen-9-yl)-pyrrolidin-1-yl]-butan-1-one]: greater than 20 nM; `CN(C(=O)C1CCCC1)C1CCCN(c2ccnc3cnc4[nH]ccc4c23)C1` (stereo not drawn) [Ex. 66, N-methyl-N-[1-(3H-pyrrolo[3,2-f][1,7]naphthyridin-9-yl)-3-piperidyl]cyclopentane-carboxamide]: greater than 20 nM.
With `CN(C(=O)CC1CC1)C1CCCN(c2ccnc3cnc4[nH]ccc4c23)C1` (stereo not drawn) [Ex. 63, 2-cyclopropyl-N-methyl-N-[1-(3H-pyrrolo[3,2-f][1,7]naphthyridin-9-yl)-3-piperidyl]acetamide], the IC50 is greater than 20 nM.
Same read-out and setting: to `O=C(CC(F)(F)F)N1CCC[C@@H](c2ccnc3cnc4[nH]ccc4c23)C1` [Ex. 4B, (S)3,3,3-trifluoro-1-[3-(3H-pyrrolo[3,2-f][1,7]naphthyridin-9-yl)-1-piperidyl]propan-1-one] belongs greater than 20 nM; to `c1cc(N2CCOCC2)c2c(cnc3[nH]ccc32)n1` [Ex. 64, 4-(3H-pyrrolo[3,2-f][1,7]naphthyridin-9-yl)morpholine], greater than 20 nM.
`O=C(C1CC1)N1CCC(c2ncnc3cnc4[nH]ccc4c23)C1` (stereo not drawn) [Ex. 35, Cyclopropyl-[3-(3H-3,4,6,8-tetraaza-cyclopenta[a]naphthalen-9-yl)-pyrrolidin-1-yl]-methanone]: the half-maximal inhibitory concentration (IC50) is greater than 20 nM.
The same measure, in the same setting: next, `O=C(CC(F)(F)F)N1CCC(c2ncnc3cnc4[nH]ccc4c23)C1` (stereo not drawn) [Ex. 33, 3,3,3-Trifluoro-1-[3-(3H-3,4,6,8-tetraaza-cyclopenta[a]naphthalen-9-yl)-pyrrolidin-1-yl]-propan-1-one]: greater than 20 nM; `N#CCC(=O)NC1CCN(c2ccnc3cnc4[nH]ccc4c23)C1` (stereo not drawn) [Ex. 99, 2-cyano-N-[1-(3H-pyrrolo[3,2-f][1,7]naphthyridin-9-yl)pyrrolidin-3-yl]acetamide]: greater than 20 nM.
Consider `CC(C)C(=O)N1CCCC(c2ccnc3cnc4[nH]ccc4c23)C1` (stereo not drawn) [Ex. 3, 2-methyl-1-[3-(3H-pyrrolo[3,2-f][1,7]naphthyridin-9-yl)-1-piperidyl]propan-1-one], for which the IC50 is greater than 20 nM.
Same read-out and setting: to `O=C(NC1CCN(c2ccnc3cnc4[nH]ccc4c23)C1)C1CC1` (stereo not drawn) [Ex. 96, N-[1-(3H-pyrrolo[3,2-f][1,7]naphthyridin-9-yl)pyrrolidin-3-yl]cyclopropanecarbox-amide] belongs greater than 20 nM; to `O=C(CC(F)(F)F)N1CCC(c2ccnc3cnc4[nH]ccc4c23)CC1` [Comp. 88, 3,3,3-trifluoro-1-[4-(3H-pyrrolo[3,2-f][1,7]naphthyridin-9-yl)-1-piperidyl]propan-1-one], greater than 20 nM; to `CC(C)CS(=O)(=O)N1CCC(c2ncnc3cnc4[nH]ccc4c23)C1` (stereo not drawn) [Ex. 40, 9-[1-(2-Methyl-propane-1-sulfonyl)-pyrrolidin-3-yl]-3H-3,4,6,8-tetraaza-cyclopenta[a]naphthalene], greater than 20 nM.
Consider `N#CCC(=O)N1CC=C(c2ccnc3cnc4[nH]ccc4c23)C1` [Ex. 41, 3-oxo-3-[3-(3H-pyrrolo[3,2-f][1,7]naphthyridin-9-yl)-2,5-dihydropyrrolo-1-yl]propanenitrile], for which the IC50 is greater than 20 nM.
For the compound `CC(C)C(=O)NC1CCN(c2ccnc3cnc4[nH]ccc4c23)C1` (stereo not drawn) [Ex. 97, 2-methyl-N-[1-(3H-pyrrolo[3,2-f][1,7]naphthyridin-9-yl)pyrrolidin-3-yl]propanamide], the IC50 is greater than 20 nM.
On the same count and under the same terms, to `CC(C)CS(=O)(=O)NC1CCN(c2ccnc3cnc4[nH]ccc4c23)C1` (stereo not drawn) [Ex. 93, 2-methyl-N-[1-(3H-pyrrolo[3,2-f][1,7]naphthyridin-9-yl)pyrrolidin-3-yl]propane-1-sulfonamide] belongs greater than 20 nM; to `CS(=O)(=O)NC1CCN(c2ccnc3cnc4[nH]ccc4c23)C1` (stereo not drawn) [Ex. 101, N-[1-(3H-pyrrolo[3,2-f][1,7]naphthyridin-9-yl)pyrrolidin-3-yl]methanesulfonamide], 1 to 20 nM.
For the compound `c1cc(N2CCCC(N3CCOCC3)C2)c2c(cnc3[nH]ccc32)n1` (stereo not drawn) [Ex. 70, 4-[1-(3H-pyrrolo[3,2-f][1,7]naphthyridin-9-yl)-3-piperidiyl] morpholine], the 50% inhibitory concentration (IC50) is greater than 20 nM.
Consider `CC(C)C(=O)N1CCC(c2ncnc3cnc4[nH]ccc4c23)C1` (stereo not drawn) [Ex. 36, 2-Methyl-1-[3-(3H-3,4,6,8-tetraaza-cyclopenta[a]naphthalen-9-yl)-pyrrolidin-1-yl]-propan-1-one], for which the IC50 is greater than 20 nM.
For the compound `CC(C)(C)C(=O)N1CCC(c2ncnc3cnc4[nH]ccc4c23)C1` (stereo not drawn) [Ex. 38, 2,2-Dimethyl-1-[3-(3H-3,4,6,8-tetraaza-cyclopenta[a]naphthalen-9-yl)-pyrrolidin-1-yl]-propan-1-one], the concentration for half-maximal inhibition (IC50) was greater than 20 nM.
Same read-out and setting: next, `CCOC(=O)c1cnc2cnc3c(ccn3S(=O)(=O)c3ccc(C)cc3)c2c1O` [Comp. 8, Ethyl 9-hydroxy-3-(p-tolylsulfonyl)pyrrolo[3,2-f][1,7]naphthyridine-8-carboxylate]: greater than 20 nM.
For `CC(C)NC(=O)NC1CCN(c2ccnc3cnc4[nH]ccc4c23)C1` (stereo not drawn) [Ex. 95, 1-isopropyl-3-[1-(3H-pyrrolo[3,2-f][1,7]naphthyridin-9-yl)pyrrolidin-3-yl]urea], the half-inhibitory concentration (IC50) is greater than 20 nM.
Still for that read-out and setting: next, `O=C(CC(F)(F)F)NC1CCN(c2ccnc3cnc4[nH]ccc4c23)C1` (stereo not drawn) [Ex. 100, 3,3,3-trifluoro-N-[1-(3H-pyrrolo[3,2-f][1,7]naphthyridin-9-yl)pyrrolidin-3-yl]propanamide]: 1 to 20 nM; `O=C(CC1CC1)NC1CCN(c2ccnc3cnc4[nH]ccc4c23)C1` (stereo not drawn) [Ex. 98, 2-cyclopropyl-N-[1-(3H-pyrrolo[3,2-f][1,7]naphthyridin-9-yl)pyrrolidin-3-yl]acetamide]: greater than 20 nM; `N#CCC(=O)N1CCC(c2ncnc3cnc4[nH]ccc4c23)C1` (stereo not drawn) [Ex. 34, 3-Oxo-3-[3-(3H-3,4,6,8-tetraaza-cyclopenta[a]naphthalen-9-yl)-pyrrolidin-1-yl]-propionitrile]: greater than 20 nM.
In the case of `COCCNC(=O)C1CCCN(c2ccnc3cnc4[nH]ccc4c23)C1` (stereo not drawn) [Ex. 69, N-(2-methoxyethyl)-1-(3H-pyrrolo[3,2-f][1,7]naphthyridin-9-yl)piperidine-3-carboxamide], the half-inhibitory concentration (IC50) is greater than 20 nM.
Same read-out and setting: next, `O=C(CC(F)(F)F)N1CC=C(c2ccnc3cnc4[nH]ccc4c23)C1` [Ex. 42, 3,3,3-trifluoro-1-[3-(3H-pyrrolo[3,2-f][1,7]naphthyridin-9-yl)-2,5-dihyropyrrol-1-yl]propan-1-one]: greater than 20 nM; `N#CCS(=O)(=O)NC1CCN(c2ccnc3cnc4[nH]ccc4c23)C1` (stereo not drawn) [Ex. 94, 1-cyano-N-[1-(3H-pyrrolo[3,2-f][1,7]naphthyridin-9-yl)pyrrolidin-3-yl]methanesulfonamide]: 1 to 20 nM.
Turning to `NC1CCN(c2ccnc3cnc4[nH]ccc4c23)C1` (stereo not drawn) [Comp. 125, 1-(3H-pyrrolo[3,2-f][1,7]naphthyridin-9-yl)pyrrolidin-3-amine], the IC50 is greater than 20 nM.
